In assay [1] the test system is colon carcinoma cells HCT-116. The assay is described as follows: Cytotoxicity assay on HCT-116. It counts as cell-based. The following applies: for IC50: Homo sapiens, HCT-116.
Assay [2] concerns vancomycin-resistant E. faecium (ATCC700221) (VREF). The assay is described as follows: Antimicrobial growth inhibition (MIC), VREF.
Assay [3] relates to amphotericin-resistant Candida albicans (ARCA). The assay is described as follows: Antifungal growth inhibition (MIC), ARCA. It counts as cell-based. The following applies: for MIC: read-out: ARCA (MIC).
In assay [4] the target is dihydrofolate reductase (DHFR) from Escherichia coli (Escherichia coli, UniProt P0ABQ4). The assay is described as follows: biochemical. It counts as binding. As to conditions: for ΔTm: unit given in Table 4. Here is the method: The thermal shift assay was performed in a control reaction mix containing 100 mM HEPES pH 7.3, 150 mM NaCl, 5× Sypro-orange (an extrinsic fluorophore reporter from Invitrogen), 10 micromolar of the protein dihydrofolate reductase in 20 μl reaction mix. The test reaction contained 1 mM of the said compound apart from all the other constituents as mentioned above. Protein melting curves were obtained from samples aliquoted in 96-well plates using a RealPlex quantitative PCR from Eppendorf. […] A heating ramp of 1 degree Celsius/min was used from 25 degree Celsius to 74 degree Celsius and one data point was acquired for each degree increment. Appropriate dye controls and protein controls were incorporated. All the experiments were done with minimum two replicates and the mean value of the replicate Y was considered for further analysis.
Protein melting curves were obtained from samples aliquoted in 96-well plates using a RealPlex quantitative PCR instrument from Eppendorf (Eppendorf, N.Y., USA), with Sypro orange dye from Invitrogen as the fluorescent probe. A uniform final concentration of 5× (supplied as a 5000× stock solution) was used in all experiments. […] A heating ramp of 1° C./min from 25° C. to 74° C. was used, and one data point acquired for each degree increment. For standardization, different buffers and pH were checked. Thereafter, 100 mM HEPES pH 7.3 and 150 mM NaCl were used in all unfolding experiments. The volume of each reaction was 20 μl, and appropriate dye and protein controls were included. All experiments were done with a minimum of two replicates, with the mean value considered for further analysis. […] An additional control to rule out drug-dye interaction was carried out with all the constituents kept constant except for the protein of interest. The protein/protein-drug curves were reported after subtracting the respective dye alone/drug-dye curves.
Each melting curve was assigned a quality score (Q), the ratio of the melting-associated increase in fluorescence (ΔFmelt) to the total fluorescence range (ΔFtotal). […] Though an arbitrary Q value cutoff was not applied to judge curve quality, the curves were manually curated with Q values reported.
Subsequent to standardization, the validity of the top 1% of […]^comb's predictions on the test set of eight diverse proteins was examined. To be conservative, we focused only on those protein/ligand pairs showing single sigmoidal thermal transition curves. The fit to Boltzmann's equation (Eq. 1) was employed to estimate the melting temperature from the observed intensity, I.
[formula] Imin and Imax are the minimum and maximum intensities; a denotes the slope of the curve at the transition midpoint temperate, Tm. To estimate thermodynamic parameters, both van't Hoff and Gibbs-Helmholtz analyses were done.
[formula] KL(Tm) is the ligand association constant and [L] is the free ligand concentration at Tm([LTm]˜[L]total, when [L]total>>the total concentration of protein. KD is the inverse of KL(Tm).

The subject of assay [5] is several cancer cell lines including melanoma, prostrate, colon, and breast. As to conditions: cited from earlier work.
For assay [6], the system named is methicillin-resistant S. aureus (ATCC 33591) (MRSA). The assay is described as follows: Antimicrobial growth inhibition (MIC), MRSA.
Another assay has as its system E. coli DH5α. The assay is described as follows: Antimicrobial growth inhibition (MIC), E. coli DH5α. As to conditions: Escherichia coli.
In assay [7] the test system is multi-drug resistant E. coli SMS-3-4 (ATCC BAA-1743) (MDREC). The assay is described as follows: Antimicrobial growth inhibition (MIC), MDREC. As to conditions: Escherichia coli.
The mark [8] stands for this setting: Table 6, ND: No significant inhibition, read-out: HCT-116 (IC-50), inhibitory concentration for 50% growth inhibition.
[9] abbreviates: Enterococcus faecium, ATCC700221, read-out: VREF (MIC), minimum inhibitory concentration required for 90% clearance.
Setting [10] is: Table 5, computed from the thermal shifts obtained, read-out: KD (Approx).
The mark [11] stands for this setting: Candida albicans, Table 5, unit from Table 1, ND: non determinable/no significant inhibition.
The mark [12] stands for this setting: Table 5, unit from Table 6, ND: non determinable/no significant inhibition.
The mark [13] stands for this setting: Table 6, ND: No significant inhibition.

Values after ≈ are worked out from the molar mass of the structure shown. Like-named read-outs stand apart in the source and are kept apart here.

With `CN(Cc1cnc2nc(N)nc(N)c2n1)c1ccc(C(=O)N[C@@H](CCC(=O)O)C(=O)O)cc1` [NSC740, methotrexate], in assay [1] (setting [8]), the IC50 is 0.048 µg/mL (≈ 0.106 µM). The MIC in assay [2] (setting [9]) and in assay [3] (Candida albicans) was 500 µg/mL (≈ 1100 µM) in each case.
`CCOc1ccc(NC(=O)c2cc3ccccc3cc2O)cc1` [NSC50690]: the Kd in assay [4] (setting [10]) was 463 µM. For the same molecule, the ΔTm in assay [4] (Table 5) came out at 0.23 °C.
On the same counts, the results for `Nc1ccc(NC(=O)c2ccc(C(=O)Nc3ccc(N)cc3)cc2)cc1` [NSC55152] are 73.8 µM and 5.89 °C.
As to `Nc1ccc(-c2nc3nc(N)nc(N)c3nc2-c2ccc(N)cc2)cc1` [NSC61642, 6,7-bis(4-aminophenyl) pteridine-2,4-diamine, reference compound], in assay [4] (setting [10]), the Kd was 2.03 µM. The MIC in assay [3] (setting [11]) stood at 250 µg/mL (≈ 726 µM).
Take `O=C(Nc1ccc(Oc2ccc(NC(=O)Nc3ccc([N+](=O)[O-])cc3)cc2)cc1)Nc1ccc([N+](=O)[O-])cc1` [NSC80735]: the “HCT-116 (IC-50)” value in assay [1] (setting [12]) turned out to be 10.9 µg/mL. Further, the Kd in assay [4] (setting [10]) worked out at 1.71 µM; in assay [4] (text b322, read-out: KD / affinity) it was 1.7 µM. For the same molecule, the ΔTm in assay [4] (Table 5) was determined as 18.16 °C.
For the molecule `C1=Cc2ccccc2Nc2ccccc21` [NSC123458], the Kd in assay [4] (setting [10]) was determined as 5.64 µM. Further, the ΔTm in assay [4] (Table 5) was 14.17 °C.
On the same counts, the results for `COc1cc(NCc2ccccc2O)c2ncccc2c1` [NSC130801] are 75 µM and 5.84 °C.
Regarding `CC(C)=C(c1ccc(Cl)cc1)c1c(N)ncnc1N` [NSC157522], the Kd in assay [4] (setting [10]) turned out to be 19.5 µM. The ΔTm in assay [4] (Table 5) was determined as 10.13 °C.
The matching figures for `O=C(Nc1ccc(C(=O)O)c(O)c1)c1ccccc1` [NSC159686]: 12.7 µM and 11.52 °C.
For the molecule `Nc1ccc(Cn2ccc3c4c(N)nc(N)nc4ccc32)cc1` [NSC309401, 7-[(4-aminophenyl)methyl]-7H-pyrrolo[3,2-f]quinazoline-1,3-diamine], the “activity against cancer cell lines (potency not revealed)” value in assay [5] is listed as “has activity”. Besides, the MIC90 came out at 31.2 µg/mL (≈ 103 µM) in assay [6] (Staphylococcus aureus, ATCC33591|MRSA, read-out: MIC (MIC-90, minimum inhibitory concentration for 90% growth inhibition)); 7.81 µg/mL (≈ 25.7 µM) with E. coli DH5α (read-out: MIC (MIC-90, minimum inhibitory concentration for 90% growth inhibition)); 31.2 µg/mL (≈ 103 µM) in assay [2] (Enterococcus faecium, ATCC700221, read-out: MIC (MIC-90, minimum inhibitory concentration for 90% growth inhibition)); 125 µg/mL (≈ 411 µM) in assay [3] (Candida albicans, read-out: MIC (MIC-90, minimum inhibitory concentration for 90% growth inhibition), Table 1, ARCA); 125 µg/mL (≈ 411 µM) in assay [7] (ATCCBAA1743, read-out: MIC (MIC-90, minimum inhibitory concentration for 90% growth inhibition)). Further, the MIC in assay [6] (Staphylococcus aureus, ATCC33591|MRSA, read-out: MRSA (MIC), minimum inhibitory concentration required for 90% clearance) turned out to be 31.2 µg/mL (≈ 103 µM); in assay [6] (Staphylococcus aureus, read-out: MRSA (MIC)), 31.2 µg/mL (≈ 103 µM); with E. coli DH5α (read-out: DH5α (MIC)), 7.81 µg/mL (≈ 25.7 µM); in the assay on E. coli DH5α (read-out: DH5α (MIC), minimum inhibitory concentration required for 90% clearance), 7.81 µg/mL (≈ 25.7 µM); in assay [2] (Enterococcus faecium, ATCC700221, read-out: VREF (MIC)), 31.2 µg/mL (≈ 103 µM); in assay [2] (setting [9]), 31.2 µg/mL (≈ 103 µM). The MIC in assay [3] (setting [11]) is 125 µg/mL (≈ 411 µM); in assay [7] (ATCCBAA1743, read-out: MDREC (MIC), minimum inhibitory concentration required for 90% clearance), 125 µg/mL (≈ 411 µM). The IC50 was found to be 0.13 µg/mL (≈ 0.427 µM) in assay [1] (Table 5, unit from Table 6, ND: non determinable/no significant inhibition, read-out: HCT-116 (IC-50)) and 0.13 µg/mL (≈ 0.427 µM) in assay [1] (setting [8]).
As for `N/C(CC(=O)Nc1cc(C(F)(F)F)ccc1Cl)=N\O` [NSC379536], in assay [4] (setting [10]), the Kd was 28.9 µM. For the same molecule, the ΔTm in assay [4] (Table 5) worked out at 8.86 °C.
Take `CCc1nc(N)nc(N)c1-c1ccc(N(C)Cc2ccccc2)c([N+](=O)[O-])c1` [NSC382035, methylbezoprim, reference compound]: in assay [6] (setting [12]), the “MRSA (MIC)” value is 31.25 µg/mL. In assay [6] (setting [13]), the “MRSA (MIC), minimum inhibitory concentration required for 90% clearance” value came out at 31.25 µg/mL. For the same molecule, in assay [1] (setting [12]), the “HCT-116 (IC-50)” value is 0.182 µg/mL. The “HCT-116 (IC-50), inhibitory concentration for 50% growth inhibition” value in assay [1] (setting [13]) is 0.182 µg/mL. Moreover, the “VREF (MIC)” value in assay [2] (setting [12]) was found to be 31.25 µg/mL. Also, the “VREF (MIC), minimum inhibitory concentration required for 90% clearance” value in assay [2] (setting [13]) is 31.25 µg/mL. The “ARCA (MIC)” value in assay [3] (Table 5, unit from Table 1, ND: non determinable/no significant inhibition) worked out at 250 µg/mL.
Regarding `C#CCC(Cc1cnc2nc(N)nc(N)c2n1)c1ccc(C(=O)N[C@@H](CCC(=O)O)C(=O)O)cc1` (stereo partly drawn) [NSC754230, pralatrexate, reference compound], the IC50 in assay [1] (setting [8]) is less than 0.031 µg/mL. Further, the Kd in assay [4] (setting [10]) turned out to be 0.499 µM.

These data come from patent publication US9920058B2, “Molecules with potent DHFR binding affinity and antibacterial activity” (Georgia Tech Research Corporation, priority 2013, dated 2018).
